As a reminder, the IC50 is the midpoint of a concentration-inhibition curve.

Consider seven compounds from US10508086B2 (CANCER RESEARCH TECHNOLOGY LIMITED, priority 2014, dated 2019).

The target of one test is Human Full Length ARH3 (Homo sapiens (Human), UniProt Q9NX46). Kind of test: ARH3 in vitro selectivity assay (TR-FRET). The class given is biochemical. The conditions noted are these: read-out: ARH3 Biochem IC50. The method, then:
ARH3 In vitro selectivity assays were conducted in a total volume of 15 ul in a standard 384 well format. 5 ul of Human Full Length ARH3 (Enzo Life Sciences: ALX-201-292), used at a final reaction concentration of 17.5 nM, was added to 5 ul of Ribosylated PARP substrate (also produced internally by Astra Zeneca) at final reaction concentration of 4.5 nM in assay buffer (50 mM Tris pH7.4, 0.1 mg/ml BSA, 3 mM EDTA, 0.4 mM EGTA, 1 mM DTT, 0.01% Tween 20, 50 mM KCl). The reaction was incubated at room temperature for 30 minutes and then 5 ul detection reagent was added. Detection Reagent consists of 42 nM MAb Anti-6HIS XL665 (CisBio: 61HISXLB) and 2.25 nM Streptavidin Europium Cryptate (CisBio: 610SAKLB), both at 3× working stock concentrations (final concentrations of 14 nM and 0.75 nM respectively), in a detection buffer of 50 mM Tris pH7.4, BSA at 0.1 mg/ml and KF at 100 mM. Following incubation at room temperature for 60 minutes in the dark, TR-FRET signal was measured at Ex 340 and Em 665 and Em 620. A ratio was calculated as Em665/EM620×104 for each well and used to calculate percent inhibition for test compounds.
Background: Time-resolved FRET reads energy transfer from a long-lived donor to a nearby acceptor.

Another test addresses Human Full Length PARG (Homo sapiens (Human), UniProt Q86W56). Kind of test: PARG in vitro enzyme assay (TR-FRET). The test is classed as biochemical. The settings on record: read-out: PARG_EC50_ENZYME. The method in brief:
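Full-length human PARG ([…]) incubated with ribosylated PARP substrate (4.5 nM) for 10 min at room temperature in Tris pH 7.4 buffer with EDTA, EGTA, DTT, KCl. Detection by TR-FRET using anti-6HIS XL665 (14 nM final) and streptavidin europium cryptate (0.75 nM final) after 60 min; Em665/Em620 ratio converted to percent inhibition.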

Test [1] has as its target Human High specific Activity PARP1 (Homo sapiens (Human), UniProt P09874). In words: PARP1 in vitro selectivity assay (histone PARylation, luminescence). The test is classed as biochemical. The conditions noted are these: read-out: PARP1 Biochem IC50. The method, then: PARP1 In vitro selectivity assays were conducted as a 10 ul reaction volume in a NUNC Maxisorp 384-well assay plate pre-coated in-house with Histones. 5 ul of Human High specific Activity PARP1 (Trevigen: 4668-100-01) was used at a final reaction concentration of 0.02 units/ml in 1×PARP Buffer (Trevigen: 4671-096-02) with 5 ul of 1×PARP cocktail, which is a mixture of 10×PARP Cocktail (Trevigen: 4671-096-03), 10× Activate DNA (Trevigen: 4671-096-06) and 20×PARP Buffer (as above). The reaction was incubated at room temperature for 60 minutes to allow histones on the coated plate to become PARylated. The wells were then washed with PBS/0.1% Triton X100. PARP1 activity was then detected by measuring the extent of PARylation. Firstly, 10 ul of Streptavidin-HRP (Trevigen: 4800-30-06), diluted 1 in 250 in 1×PARG Assay Buffer (Trevigen: 4680-096-02), was added to each well and incubated at room temperature for 60 minutes. Secondly, following another wash with PBS/0.1% Triton X100, Peroxy Glow Reagents A and B (Trevigen: 4675-096-01 and 4675-096-02) were mixed in equal quantities immediately before use and 100 ul was added to each well. Luminescence signal was then measured immediately.

A further test has as its target PARG in HeLa cell line (Homo sapiens (Human), UniProt Q86W56). In words: PARG cell assay (nuclear PAR chains after MMS, immunofluorescence). The settings on record: HeLa cells, MMS 50 μg/mL; read-out: PARG Cell IC50 Geomean. The test is classed as cell-based. The method in brief: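 HeLa cells pre-dosed 1 h with compound (10-point dose response), then MMS 50 μg/mL for a further hour at 37 °C. Fixed cells immunostained with anti-PAR antibody plus Alexa Fluor 488 secondary and Hoechst. High-content imaging quantified nuclear PAR fluorescence intensity; inhibition maintains PAR chains.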

Where only a bound is given, the exact number is not on record here.

Human High specific Activity PARP1, sequence (P09874 whole entry): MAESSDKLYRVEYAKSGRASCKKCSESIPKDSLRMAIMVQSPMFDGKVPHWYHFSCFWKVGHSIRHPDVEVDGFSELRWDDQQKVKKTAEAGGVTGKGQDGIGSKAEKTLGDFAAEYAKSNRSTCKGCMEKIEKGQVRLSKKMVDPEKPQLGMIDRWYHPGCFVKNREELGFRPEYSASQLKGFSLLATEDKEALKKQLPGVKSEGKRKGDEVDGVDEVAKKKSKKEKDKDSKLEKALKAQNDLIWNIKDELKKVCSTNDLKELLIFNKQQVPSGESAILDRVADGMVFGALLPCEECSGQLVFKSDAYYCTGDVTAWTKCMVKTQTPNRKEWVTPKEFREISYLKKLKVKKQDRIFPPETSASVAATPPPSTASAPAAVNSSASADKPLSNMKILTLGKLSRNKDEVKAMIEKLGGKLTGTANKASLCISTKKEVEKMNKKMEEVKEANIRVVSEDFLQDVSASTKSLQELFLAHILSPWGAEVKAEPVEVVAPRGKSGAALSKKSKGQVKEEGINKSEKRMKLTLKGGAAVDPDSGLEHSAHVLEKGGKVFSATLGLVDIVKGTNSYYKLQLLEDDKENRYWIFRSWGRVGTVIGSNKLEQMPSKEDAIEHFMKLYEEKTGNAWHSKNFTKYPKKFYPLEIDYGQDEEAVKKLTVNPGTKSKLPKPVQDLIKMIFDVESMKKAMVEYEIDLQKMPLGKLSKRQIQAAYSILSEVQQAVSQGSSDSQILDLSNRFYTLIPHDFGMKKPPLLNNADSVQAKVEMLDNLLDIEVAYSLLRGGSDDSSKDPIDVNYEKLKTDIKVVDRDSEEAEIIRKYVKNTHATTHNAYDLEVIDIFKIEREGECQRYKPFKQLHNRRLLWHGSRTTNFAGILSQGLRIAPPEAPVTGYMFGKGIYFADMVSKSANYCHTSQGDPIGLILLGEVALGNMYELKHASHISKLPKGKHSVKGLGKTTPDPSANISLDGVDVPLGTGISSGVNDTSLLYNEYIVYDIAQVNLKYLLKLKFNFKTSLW
Human Full Length ARH3, sequence (Q9NX46 whole entry): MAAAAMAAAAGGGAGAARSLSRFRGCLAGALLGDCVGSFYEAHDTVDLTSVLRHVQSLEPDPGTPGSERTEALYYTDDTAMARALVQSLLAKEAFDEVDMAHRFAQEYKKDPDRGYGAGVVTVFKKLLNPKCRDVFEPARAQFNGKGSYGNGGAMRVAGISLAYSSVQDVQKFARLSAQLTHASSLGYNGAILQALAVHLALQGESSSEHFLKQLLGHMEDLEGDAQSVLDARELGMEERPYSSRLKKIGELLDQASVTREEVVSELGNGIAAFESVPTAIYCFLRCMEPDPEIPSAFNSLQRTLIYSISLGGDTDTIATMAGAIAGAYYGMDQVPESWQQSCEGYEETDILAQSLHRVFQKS
Human Full Length PARG, sequence (Q86W56 whole entry): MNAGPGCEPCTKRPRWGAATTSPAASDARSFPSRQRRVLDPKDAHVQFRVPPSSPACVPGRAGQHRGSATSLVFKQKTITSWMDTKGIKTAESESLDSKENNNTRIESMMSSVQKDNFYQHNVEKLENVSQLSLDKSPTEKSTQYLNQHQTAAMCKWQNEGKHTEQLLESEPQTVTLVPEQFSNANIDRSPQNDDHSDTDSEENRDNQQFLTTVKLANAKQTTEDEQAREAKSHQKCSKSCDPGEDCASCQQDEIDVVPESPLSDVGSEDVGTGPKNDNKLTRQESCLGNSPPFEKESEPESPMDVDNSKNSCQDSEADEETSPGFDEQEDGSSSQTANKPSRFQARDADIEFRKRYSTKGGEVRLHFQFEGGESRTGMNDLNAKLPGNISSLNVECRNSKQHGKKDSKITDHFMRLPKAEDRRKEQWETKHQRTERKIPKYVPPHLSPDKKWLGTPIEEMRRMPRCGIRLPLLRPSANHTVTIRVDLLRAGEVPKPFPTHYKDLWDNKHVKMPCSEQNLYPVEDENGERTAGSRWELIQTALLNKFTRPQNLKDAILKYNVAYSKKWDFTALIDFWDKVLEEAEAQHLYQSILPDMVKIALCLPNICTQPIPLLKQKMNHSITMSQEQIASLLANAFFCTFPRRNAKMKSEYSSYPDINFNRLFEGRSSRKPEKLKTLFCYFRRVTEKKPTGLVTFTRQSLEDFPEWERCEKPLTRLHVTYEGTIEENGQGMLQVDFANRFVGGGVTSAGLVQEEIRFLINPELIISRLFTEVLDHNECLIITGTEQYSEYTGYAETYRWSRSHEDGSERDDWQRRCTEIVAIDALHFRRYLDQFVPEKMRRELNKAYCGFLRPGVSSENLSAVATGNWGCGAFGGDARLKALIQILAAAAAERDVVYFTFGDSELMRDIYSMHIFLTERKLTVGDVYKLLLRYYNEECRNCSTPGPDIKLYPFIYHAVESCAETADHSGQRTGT
PARG in HeLa cell line, sequence (Q86W56 whole entry): as above

In the case of `Cc1nnc(-n2c(=O)n(Cc3sc(C)nc3C)c3ccc(S(=O)(=O)NC4(C)CC4)cc32)s1` [Example 87], the figures for the IC50 (at Human Full Length ARH3; in test [1]; at PARG in HeLa cell line) were 76700 nM, above 150000 nM and 109 nM, respectively. For the same compound, at Human Full Length PARG, the EC50 stood at 68 nM.
`Cc1nc(C)c(Cn2c(=O)n(-c3nnc(C(F)F)s3)c3cc(S(=O)(=O)NC4(C)CC4)ccc32)s1` [Example 88]: the IC50 at Human Full Length ARH3 is above 100000 nM; in test [1], above 150000 nM; on PARG in HeLa cell line it was 38 nM. For the same compound, the EC50 on Human Full Length PARG worked out at 53 nM.
Regarding `Cc1nc(C)c(Cn2c(=O)n(-c3ncns3)c3cc(S(=O)(=O)NC4(C)CC4)ccc32)s1` [Example 90], the IC50 was above 100000 nM at Human Full Length ARH3, above 150000 nM in test [1] and 63 nM at PARG in HeLa cell line. Further, the EC50 at Human Full Length PARG was found to be 40 nM.
Take `Cc1nnc(-n2cc(Cc3sc(C)nc3C)c3ccc(S(=O)(=O)NC4(C)CC4)cc32)s1` [Example 129, 3-[(2,4-Dimethylthiazol-5-yl)methyl]-N-(1-methylcyclopropyl)-1-(5-methyl-1,3,4-thiadiazol-2-yl)indole-6-sulfonamide]: the results for the IC50 (on Human Full Length ARH3; in test [1]; on PARG in HeLa cell line) were above 16700 nM, above 150000 nM and 251 nM, respectively. Besides, the EC50 at Human Full Length PARG was 371 nM.
Consider `CC1(NS(=O)(=O)c2ccc3c(C(=O)C4CC4)cn(-c4nnc(C(F)F)s4)c3c2)CC1` [Example 145, 3-(Cyclopropanecarbonyl)-1-[5-(difluoromethyl)-1,3,4-thiadiazol-2-yl]-N-(1-methylcyclopropyl)indole-6-sulfonamide], for which the figures for the concentration for half-maximal inhibition (IC50) (on Human Full Length ARH3; in test [1]; on PARG in HeLa cell line) were above 150000 nM, above 150000 nM and 46.6 nM, respectively. Moreover, at Human Full Length PARG, the EC50 is 134 nM.
Consider `Cn1c(=O)n(-c2nnc(C(F)F)s2)c2cc(S(=O)(=O)NC3(CF)CC3)c(F)cc21` [Example 174, 3-[5-(difluoromethyl)-1,3,4-thiadiazol-2-yl]-6-fluoro-N-[1-(fluoromethyl)cyclopropyl]-1-methyl-2-oxo-benzimidazole-5-sulfonamide], for which the IC50 at Human Full Length ARH3 was above 50000 nM; in test [1] it was above 150000 nM; on PARG in HeLa cell line it was 41 nM. The EC50 at Human Full Length PARG is 91 nM.
Regarding `CCn1c(=O)n(-c2nnc(C(F)F)s2)c2cc(S(=O)(=O)NC3(CF)CC3)c(F)cc21` [Example 208, 3-[5-(Difluoromethyl)-1,3,4-thiadiazol-2-yl]-1-ethyl-6-fluoro-N-[1-(fluoromethyl)cyclopropyl]-2-oxo-benzimidazole-5-sulfonamide], the IC50 at Human Full Length ARH3 is above 150000 nM; in test [1] it was above 150000 nM; on PARG in HeLa cell line, 29 nM. Moreover, the EC50 at Human Full Length PARG was 54 nM.
